The record followed here is patent US20260274876A1, “3-PYRROLIDINE-INDOLE DIMERS AS SEROTONERGIC AGENTS USEFUL FOR THE TREATMENT OF DISORDERS RELATED THERETO” (MINDSET PHARMA INC., priority 2022, published 2026).

A short description of data set [1]: Intestinal mucosal permeation using Caco-2 cell monolayers. The settings on record: human; for Papp A→B at 2 h, 5 µM / Papp B→A at 2 h, 5 µM / efflux ratio at 2 h, 5 μM: Caco-2, pH 7.4. The protocol: Plate was returned to incubator.
Vortexed for 5 minutes. […] Incubated at 37° C. for 30 minutes.
(Caco-2 monolayers are a common model of the intestinal barrier.)

The nature of data set [2]: Liver microsomes stability, human. The settings on record: human liver microsomes, without cofactors, 60 min. The protocol:
(§1) 40 μL of 10 mM NADPH solution was added to each well. The final concentration of NADPH was 1 mM. The negative control samples were prepared by replacing NADPH with 40 μL of ultra-pure H2O. Samples were prepared in duplicate. Negative controls were prepared in singlet.
(§2) This study was performed in duplicate.
(§3) LC/MS analysis was performed for all samples from this study using a Shimadzu liquid chromatograph separation system equipped with degasser DGU-20A5R; solvent delivery unit LC-30AD; system controller SIL-30AC; column oven CTO-30A; CTC Analytics HTC PAL System. Mass spectrometric analysis was performed using a Triple Quad™ 5500 instrument.
(§4) All calculations were carried out using Microsoft Excel.
(§5) All calculations were carried out using Microsoft Excel. Peak areas were determined from extracted ion chromatograms.

The nature of data set [3]: Liver microsomes stability, mouse. The settings on record: mouse liver microsomes, 60 min. How it is done: as §1, §2, §3, §4, §5
Data set [4] can be described thus: Liver microsomes stability, rat. The settings on record: rat liver microsomes, 60 min. How it is done:
as §1, §2, §3, §4, §5
(Liver microsomes are a subcellular fraction often used to study metabolism.)

The target of a further data set is human 5-HT2A receptor (Homo sapiens, UniProt P28223). In words: Human 5-HT2A radioligand binding assay ([3H]-ketanserin). The protocol:
The objective of this study was to evaluate the binding properties of exemplary compounds of Formula I on 5-hydroxytryptamine receptor 2A (5-HT2A).
• 1. The assay buffer was prepared following the table below.
• 2. 8 doses of reference and test compounds starting from 10 mM stock solution as required was prepared by 5-fold serial dilutions with 100% (v/v) DMSO. • 3. UniFilter-96 GF/B plate was pretreated: • i. 50 μl/well of 0.5% (v/v) PEI was added to […]. The plates were sealed and incubated at […] for 3 hrs. • ii. After incubation, the plates were washed 3 times with ice-cold wash buffer (50 mM Tris, pH7.4). • 4. The assay plate was prepared: • i. Cell membrane was diluted with assay buffer and 330 μl/well was added to 96 round deep well plates to reach a concentration of 20 μg/well. • ii. 8 concentrations of reference or test compounds were prepared and 110 μl/well was added to 96 round deep well plates. • iii. [3H]-ketanserin was diluted with assay buffer to 5 nM (5×final concentration) and 110 μl/well was added to 96 round deep well plates. • 5. The plate was centrifuged at 1000 rpm for 30 secs and then agitated at 600 rpm, R.T. for 5 min. • 6. The plates were sealed and the plate incubated at 279C for 90 min. • 7. The incubation was stopped by vacuum filtration onto GF/B filter plates followed by 4 times washing with ice-cold wash buffer (50 mM Tris, pH7.4). • 8. The plates were dried at 379C for 45 min. • 8. The filter plates were sealed and 40 μl/well of scintillation cocktail was added. • 10. The plate was read by using a Microbeta^2 microplate counter.
• 1. For reference and test compounds, the results were expressed as % Inhibition, using the normalization equation: N=100−100×(U−C2)/(C1−C2), where U is the unknown value, C1 is the average of high controls, and C2 is the average of low controls. • 2. The IC50 was determined by fitting percentage of inhibition as a function of compound concentrations with Hill equation using XLfit.

A short description of a further data set: Plasma stability, human. It is filed as in vitro ADME. How it is done: (§6) • a. […] The final concentration of organic solvents was 0.5%. The assay was performed in duplicated. • b.
as §4

A short description of another data set: Plasma stability, mouse. It is filed as in vitro ADME. How it is done: as §6, §4
Another data set is described as follows: Plasma stability, rat. It is filed as in vitro ADME. How it is done: as §6, §4
[5] abbreviates: Caco-2, pH 7.4, Percentage recovery (%) A→B, Caco-2, A→B.
Where [6] appears, read: Caco-2, pH 7.4, Percentage recovery (%) B→A, Caco-2, B→A.
[7] abbreviates: 37° C., N.A. = no peak detected at 30 min.

Chain of human 5-HT2A receptor (P28223 whole entry): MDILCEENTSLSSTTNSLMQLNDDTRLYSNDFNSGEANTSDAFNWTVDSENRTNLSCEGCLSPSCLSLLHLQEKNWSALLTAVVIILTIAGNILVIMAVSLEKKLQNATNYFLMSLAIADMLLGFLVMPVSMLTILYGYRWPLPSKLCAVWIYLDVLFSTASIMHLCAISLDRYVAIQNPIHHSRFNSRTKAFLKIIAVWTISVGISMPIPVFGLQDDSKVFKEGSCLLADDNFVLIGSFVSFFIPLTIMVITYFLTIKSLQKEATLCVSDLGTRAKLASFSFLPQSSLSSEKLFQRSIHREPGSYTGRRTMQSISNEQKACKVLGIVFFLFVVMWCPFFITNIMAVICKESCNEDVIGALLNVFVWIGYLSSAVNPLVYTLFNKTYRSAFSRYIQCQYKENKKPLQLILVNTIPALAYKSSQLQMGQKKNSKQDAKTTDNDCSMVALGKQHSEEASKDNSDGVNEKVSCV

What is called Papp A→B is the apparent permeability from the apical to the basolateral side of a cell layer. Read a high Papp A→B as ready permeation. The term Papp B→A denotes how fast a substance crosses the layer from the basolateral side. What is called efflux ratio is the permeability from basolateral to apical divided by that in the opposite direction, in the common usage. For the compound `C[C@H]1O[C@@H](O[C@H]2[C@@H](O)C[C@H](O[C@H]3[C@@H](O)C[C@H](O[C@H]4CC[C@@]5(C)[C@H](CC[C@@H]6[C@@H]5C[C@@H](O)[C@]5(C)[C@@H](C7=CC(=O)OC7)CC[C@]65O)C4)O[C@@H]3C)O[C@@H]2C)C[C@H](O)[C@@H]1O` [Digoxin], in data set [1], the apparent permeability from apical to basolateral (Papp A→B) at 2 h, 5 µM was found to be 5.3 nm/s; the Papp B→A at 2 h, 5 µM is 189 nm/s; the efflux ratio at 2 h, 5 μM is 35.4. Further, the recovery at 2 h, 5 μM in data set [1] (setting [5]) was 86.6%. This compound also gave a recovery at 2 h, 5 μM in data set [1] (setting [6]) of 104%.
For `O=C(O)Cc1ccccc1Nc1c(Cl)cccc1Cl` [Diclofenac, reference compound], the “Remaining Percentage (%) after 60 min, Human, Without cofactors” value in data set [2] turned out to be 95.90%. In data set [3] (with cofactors), the “Remaining Percentage (%) after 60 min, Mouse, With cofactors” value was found to be 35.94%. The “Remaining Percentage (%) after 60 min, Mouse, Without cofactors” value in data set [3] (without cofactors) is 97.86%. The “Remaining Percentage (%) after 60 min, Rat, With cofactors” value in data set [4] (with cofactors) is 7.11%. In addition, the “Remaining Percentage (%) after 60 min, Rat, Without cofactors” value in data set [4] (without cofactors) was found to be 97.86%.
For orientation: IC50 means the midpoint of a concentration-inhibition curve. High values mean weaker potency in that assay, low ones greater potency in that assay. `CN(C)CCc1c[nH]c2cccc(OP(=O)(O)O)c12` [Psilocybin, 4-phosphoryloxy-N,N-dimethyltrypatmine]: the IC50 at human 5-HT2A receptor is 4.25 µM. In data set [1], the Papp A→B at 2 h, 5 µM came to 0.6 nm/s; the Papp B→A at 2 h, 5 µM came to 0.3 nm/s; the efflux ratio at 2 h, 5 μM turned out to be 0.45. Besides, the recovery at 2 h, 5 μM in data set [1] (setting [5]) came to 41.4%. Further, the recovery at 2 h, 5 μM in data set [1] (setting [6]) was 104%.
What is called half-life is the time in which the quantity being followed falls by half. A lower half-life goes with fast loss. `CC(C)[N+](C)(CCOC(=O)C1c2ccccc2Oc2ccccc21)C(C)C` [Propantheline, reference compound]: the “Remaining Percentage (%) 0 min” value is recorded as 100.00% in the data set “Plasma stability, human” (0 min) and 100.00% in the data set “Plasma stability, mouse” (0 min). Also, the half-life at 5 μM in the data set “Plasma stability, human” (setting [7]) was determined as 9.53 min; in “Plasma stability, mouse” (setting [7]), 34.4 min. Also, the “Remaining Percentage (%) 30 min” value is given as 18.68% in the data set “Plasma stability, human” (30 min) and 65.32% in “Plasma stability, mouse” (30 min). Besides, the “Remaining Percentage (%) 60 min” value in the data set “Plasma stability, human” (60 min) was 1.28%; in “Plasma stability, mouse” (60 min), 32.49%. Besides, the “Remaining Percentage (%) 120 min” value in “Plasma stability, mouse” (120 min) was 9.12%. Moreover, in “Plasma stability, mouse” (180 min), the “Remaining Percentage (%) 180 min” value was found to be 2.90%. For the same compound, in the data set “Plasma stability, mouse” (240 min), the “Remaining Percentage (%) 240 min” value worked out at 0.87%.
`CC(C)NCC(O)COc1cccc2ccccc12` (stereo not shown) [Propranolol]: in data set [1], the Papp A→B at 2 h, 5 µM was determined as 335 nm/s; the Papp B→A at 2 h, 5 µM is 231 nm/s; the efflux ratio at 2 h, 5 μM was found to be 0.69. Moreover, in data set [1] (setting [5]), the recovery at 2 h, 5 μM came out at 91.3%. Moreover, in data set [1] (setting [6]), the recovery at 2 h, 5 μM stood at 92.6%.
Taken in the same sequence, the figures for `COc1cc2nc(N3CCN(C(=O)c4ccco4)CC3)nc(N)c2cc1OC` [Prazosin] were 101 nm/s, 331 nm/s, 3.28, 79.5% and 105%.
`CC[C@H](C)C(=O)O[C@H]1C[C@@H](C)C=C2C=C[C@H](C)[C@H](CC[C@@H]3C[C@@H](O)CC(=O)O3)[C@H]21` [Lovastatin, reference compound]: the “Remaining Percentage (%) 0 min” value in “Plasma stability, rat” (0 min) is listed as 100.00%. The “Remaining Percentage (%) 30 min” value in “Plasma stability, rat” (30 min) turned out to be 0.00%. For the same compound, in the data set “Plasma stability, rat” (60 min), the “Remaining Percentage (%) 60 min” value was 0.00%. Further, in the data set “Plasma stability, rat” (120 min), the “Remaining Percentage (%) 120 min” value was determined as 0.00%. In “Plasma stability, rat” (180 min), the “Remaining Percentage (%) 180 min” value was determined as 0.00%. In addition, in the data set “Plasma stability, rat” (240 min), the “Remaining Percentage (%) 240 min” value turned out to be 0.00%.
